Measured values taken from ChEMBL document CHEMBL1201862, “PubChem BioAssay data set” (2004).
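Interpolation was linear, between the two tested concentrations surrounding the appropriate level; five concentrations were tested over 48 hours in 96-well plates. GI50: concentration for 50% inhibition of growth.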 The source made the active and inactive calls. Rule as the data show it: active = GI50 up to about 1.1 µM and inactive = higher.

What was measured:
Assay in all cases: NCI tumour cell line growth inhibition, 48 h
MDA-N = system: MDA-N
Hs-578T = system: Hs-578T
DMS-114 = system: DMS-114
LXFL 529 = system: LXFL 529
SNB-78 = system: SNB-78
XF498 = system: XF498
HOP-18 = system: HOP-18
KM-20L2 = system: KM-20L2
RXF 631 = system: RXF 631

In the case of `Cc1ccc(/S(Cc2ccccc2)=N\S(=O)(=O)c2ccc(C)cc2)cc1` (stereo not given), the GI50 (MDA-N) was > 100 µM (inactive).

In the case of `CCc1nc(N)nc(N)c1-c1ccc([N+](=O)[O-])c(Cl)c1`, the GI50 (Hs-578T) was 32.4 µM (inactive).

`S=C(Nc1ccccc1)c1ccc(CN2CCCCC2)s1` was tested, and the GI50 (Hs-578T) was 25.3 µM (inactive) and the GI50 (MDA-N) was 17.5 µM (inactive).

For `COc1ccc(OC(C)=O)c2c1CCC=CC2=O`, the GI50 (DMS-114) was 19.1 µM (inactive), the GI50 (LXFL 529) was 9.57 µM (inactive) and the GI50 (SNB-78) was 38.5 µM (inactive). For the same molecule, the GI50 (XF498) was 17.3 µM (inactive).

In the case of `CCCSc1ccc2[nH]c(N3C(=O)/C(=C/c4ccccc4)N=C3c3ccccc3)cc2c1`, the GI50 (Hs-578T) was 20.3 µM (inactive) and the GI50 (MDA-N) was 10.2 µM (inactive).

`NNC(=O)c1cc([N+](=O)[O-])ccc1NC(=O)C12CC3CC(CC(C3)C1)C2` was tested, and the GI50 (Hs-578T) was 5.66 µM (inactive) and the GI50 (MDA-N) was 21 µM (inactive).

In the case of `COCCCNC(=O)C1C(=O)C(=O)N(CCCOC)C1=O` (stereo not given), the GI50 (DMS-114) was > 100 µM (inactive), the GI50 (HOP-18) was > 100 µM (inactive) and the GI50 (KM-20L2) was > 100 µM (inactive). The GI50 (LXFL 529) was > 100 µM (inactive), the GI50 (RXF 631) was > 100 µM (inactive) and the GI50 (SNB-78) was > 100 µM (inactive).

`COC(=O)Cc1nn2c(nc1=O)sc1ccc3ccccc3c12` was tested, and the GI50 (HOP-18) was > 100 µM (inactive), the GI50 (KM-20L2) was > 100 µM (inactive) and the GI50 (LXFL 529) was > 100 µM (inactive). For the same molecule, the GI50 (RXF 631) was 91.6 µM (inactive).

With `[O-][S+](Nc1ccccc1)c1ccc(Cl)cc1` (stereo not given) the GI50 (Hs-578T) was 38.1 µM (inactive) and the GI50 (MDA-N) was > 100 µM (inactive).

In the case of `O=C(CSc1nc(=O)c(-c2ccccc2NC(=O)C(F)(F)F)n[nH]1)NC(=O)Nc1ccccc1`, the GI50 (LXFL 529) was 79.6 µM (inactive), the GI50 (SNB-78) was > 100 µM (inactive) and the GI50 (XF498) was > 100 µM (inactive).

With `Cc1c(OCc2cccc3ccccc23)ccc2c(=O)cc(SCCN3CCOCC3)oc12` the GI50 (Hs-578T) was > 100 µM (inactive).

With `CC(C)=CC1C(COC(=O)c2cc3c(cc2Cl)OCO3)C1(C)C` (stereo not given) the GI50 (Hs-578T) was 13.1 µM (inactive) and the GI50 (MDA-N) was 29.5 µM (inactive).

For `CO[C@@]12C[C@@H](CNC(=O)c3cc(Br)c[nH]3)O[C@@H]1NC(=O)N2`, the GI50 (Hs-578T) was > 100 µM (inactive).

`COc1ccc(-c2csc3c2-n2cccc2C3=O)cc1` was tested, and the GI50 (MDA-N) was 0.0135 µM (active).

`CNCCCNC(=S)Cn1cc(C)c(=O)[nH]c1=O` was tested, and the GI50 (Hs-578T) was > 35.1 µM (inactive) and the GI50 (MDA-N) was > 100 µM (inactive).

`O=C(C/C(=N/O)C(F)(F)F)c1cccs1` was tested, and the GI50 (Hs-578T) was > 100 µM (inactive) and the GI50 (MDA-N) was > 100 µM (inactive).

With `CCOP(=O)(O)C1C(CO)OC(n2ccc(=O)[nH]c2=O)C1O` (stereo not given) the GI50 (Hs-578T) was > 100 µM (inactive) and the GI50 (MDA-N) was > 100 µM (inactive).

`CC1=C(O)C(=O)C2C(=O)C1C(C)C2c1ccc(C)cc1` (stereo not given) was tested, and the GI50 (KM-20L2) was 3.06 µM (inactive), the GI50 (LXFL 529) was > 100 µM (inactive) and the GI50 (SNB-78) was > 100 µM (inactive). The GI50 (XF498) was > 100 µM (inactive).

`CC(C)C1N2CCCCC2[C@@H]2c3[nH]c4ccccc4c3CCN12` (stereo not given in full) was tested, and the GI50 (DMS-114) was > 100 µM (inactive), the GI50 (HOP-18) was > 100 µM (inactive) and the GI50 (KM-20L2) was > 100 µM (inactive). The GI50 (LXFL 529) was > 100 µM (inactive), the GI50 (SNB-78) was > 100 µM (inactive) and the GI50 (XF498) was > 100 µM (inactive).

For `CCN(CC)CCNC(=O)C1COc2ccc(-c3cc(=O)c4ccccc4o3)cc2O1` (stereo not given), the GI50 (HOP-18) was 21 µM (inactive), the GI50 (KM-20L2) was 17.5 µM (inactive) and the GI50 (SNB-78) was 10.1 µM (inactive). The GI50 (XF498) was 22.6 µM (inactive).

With `Cc1cc2c(SCc3ccccc3Cl)nc(N)nc2nc1C` the GI50 (Hs-578T) was 36.3 µM (inactive) and the GI50 (MDA-N) was > 100 µM (inactive).

With `S=C(NN=C1NCCCCN1)Nc1ccc(Cl)cc1` the GI50 (Hs-578T) was 60 µM (inactive) and the GI50 (MDA-N) was 11.4 µM (inactive).

For `O=S(=O)(O)c1cc(/N=[N+](\[O-])c2ccc(/N=N/c3ccccc3)cc2S(=O)(=O)O)ccc1/C=C/c1ccc(/N=[N+](\[O-])c2ccc(/N=N/c3ccccc3)cc2S(=O)(=O)O)cc1S(=O)(=O)O`, the GI50 (DMS-114) was > 100 µM (inactive), the GI50 (HOP-18) was > 100 µM (inactive) and the GI50 (SNB-78) was > 100 µM (inactive). The GI50 (XF498) was > 100 µM (inactive).

With `Nc1c(-c2ccccc2)c2ccc([N+](=O)[O-])cc2c(=O)n1-c1cccc(C(=O)O)c1` the GI50 (Hs-578T) was 61.2 µM (inactive) and the GI50 (MDA-N) was > 100 µM (inactive).

`CCC(=O)C(CCN1CCC(N2C(=O)C(CCC#N)c3ccccc32)CC1)(c1ccccc1)c1ccccc1` (stereo not given) was tested, and the GI50 (Hs-578T) was 9.57 µM (inactive).

In the case of `O=C(O)C1C(=O)Oc2c(cccc2[N+](=O)[O-])C1O` (stereo not given), the GI50 (Hs-578T) was > 100 µM (inactive) and the GI50 (MDA-N) was > 100 µM (inactive).

In the case of `COc1cc(Cl)c2c3c(c(C(C)=O)oc13)CCC2`, the GI50 (DMS-114) was > 100 µM (inactive), the GI50 (HOP-18) was > 100 µM (inactive) and the GI50 (KM-20L2) was > 100 µM (inactive). For the same molecule, the GI50 (LXFL 529) was > 100 µM (inactive), the GI50 (RXF 631) was > 100 µM (inactive) and the GI50 (SNB-78) was > 100 µM (inactive).

In the case of `O=[N+]([O-])/C(C(Cl)=C(Cl)Cl)=C1\Nc2ccc([N+](=O)[O-])cc2N1`, the GI50 (MDA-N) was 75.3 µM (inactive).

For `N#Cc1c2c(c(Nc3ccc(F)cc3)n3c1nc1ccccc13)CCC2`, the GI50 (MDA-N) was 3.47 µM (inactive).

For `COc1cc2c(cc1O)C(=O)O[C@@H]1CC=C3CCN(C)[C@H]3[C@H]21`, the GI50 (Hs-578T) was > 25 µM (inactive) and the GI50 (MDA-N) was > 25 µM (inactive).

For `Cc1ccccc1N(CC(=O)O)S(=O)(=O)c1ccccc1`, the GI50 (HOP-18) was > 100 µM (inactive), the GI50 (KM-20L2) was > 100 µM (inactive) and the GI50 (LXFL 529) was > 100 µM (inactive). The GI50 (XF498) was > 100 µM (inactive).

For `N#Cc1c(-c2ccc([N+](=O)[O-])cc2)cc(-c2ccc(Nc3ccnc4cc(C(F)(F)F)ccc34)cc2)nc1N`, the GI50 (Hs-578T) was 24.5 µM (inactive) and the GI50 (MDA-N) was 9.77 µM (inactive).

In the case of `O=C1N/C(=N/N=C/c2ccccc2)N/C1=C\c1c[nH]c2ccccc12`, the GI50 (Hs-578T) was > 100 µM (inactive) and the GI50 (MDA-N) was > 100 µM (inactive).

For `c1ccc2c(Cc3c[nH]c4ccccc34)c[nH]c2c1` [ARUNDINE], the GI50 (Hs-578T) was 41.3 µM (inactive) and the GI50 (MDA-N) was 19.2 µM (inactive).
